Source: US20220160703A1, “TUMOR-SELECTIVE COMBINATION THERAPY” (The Board of Regents of The University of Texas System, priority 2019, published 2022)

What was measured:
A549 tumor [1] = test: A549 xenograft in NSG-SGM3 humanized mouse model; assay type: in vivo, mice; conditions: Hu-NSG-SGM3 versus NSG-SGM3, β-lap 0.2 mg i.t. four times
Protocol: FIGS. 2A-F. β-Lap's antitumor effect is CD8^+ T cell dependent. (FIG. 2A) MC38 cells were subcutaneously transplanted into C57BL/6 WT (n=5-6/group) and Rag1 KO mice (n=5/group), respectively. Tumor bearing mice were treated with β-lap (0.3 mg, i.t.) every other day for four times. Numbers of tumor free mice after treatment were shown. (FIG. 2B) MC38 tumor bearing C57BL/6 mice (n=5/group) were treated with β-lap (0.3 mg, i.t.) every other day for four times. For CD8^+ T cell depletion, 200 μg of anti-CD8 antibodies were intraperitoneally injected four times at three days interval during the treatment. […] (FIG. 2D) Naïve (n=5/group) and β-lap cured MC38 tumor free (n=7/group) C57BL/6 mice were rechallenged subcutaneously with 3×10^6 MC38 cells on the opposite site from the primary tumor 30 days after complete rejection, and tumor growth curve was monitored. […] Tumor growth was measured twice a week. Data are shown as mean±SEM from three independent experiments. **P<0.01, ***P<0.001, ****P<0.0001 determined by two-way ANOVA.
For NSG-SGM3 humanized mouse model, four-week-old NSG-SGM3 female mice were irradiated with 100 cGy (X-ray irradiation with X-RAD 320 irradiator) one day prior to human CD34+ cells transfer. […] Tumor volumes were measured at least twice weekly. […]

A549 tumor [2] = test: A549 xenograft in immune-reconstituted C57BL/6 Rag1−/− mice; assay type: in vivo; conditions: β-lap 0.2 mg i.t. four times
Protocol: FIGS. 2A-F. β-Lap's antitumor effect is CD8^+ T cell dependent. (FIG. 2A) MC38 cells were subcutaneously transplanted into C57BL/6 WT (n=5-6/group) and Rag1 KO mice (n=5/group), respectively. Tumor bearing mice were treated with β-lap (0.3 mg, i.t.) every other day for four times. Numbers of tumor free mice after treatment were shown. (FIG. 2B) MC38 tumor bearing C57BL/6 mice (n=5/group) were treated with β-lap (0.3 mg, i.t.) every other day for four times. For CD8^+ T cell depletion, 200 μg of anti-CD8 antibodies were intraperitoneally injected four times at three days interval during the treatment. (FIG. 2C) TC-1 tumor bearing C57BL/6 mice (n=4-5/group) were treated with β-lap (0.1 mg, i.t.) for four times with or without anti-CD8 antibodies. (FIG. 2D) Naïve (n=5/group) and β-lap cured MC38 tumor free (n=7/group) C57BL/6 mice were rechallenged subcutaneously with 3×10^6 MC38 cells on the opposite site from the primary tumor 30 days after complete rejection, and tumor growth curve was monitored. […] Tumor growth was measured twice a week. Data are shown as mean±SEM from three independent experiments. **P<0.01, ***P<0.001, ****P<0.0001 determined by two-way ANOVA.
Immune reconstituted mouse models. […] Tumor volumes were measured at least twice weekly.

For `CC1(C)CCC2=C(O1)c1ccccc1C(=O)C2=O` [β-lap, β-lapachone], the “tumor control in presence of human immune system” value (A549 tumor [1]) was “much better tumor control”, the “tumor growth without T cell transfer” value (A549 tumor [2]; no OT-1 LN cells) was “only partially inhibited” and the tumors completely rejected (A549 tumor [2]; with 2×10^6 OT-1 LN cells) was 50%.
